From patent US8318146B1, “Ascarosides as nematode sex pheromones” (The United States of America, as represented by the …, priority 2008, dated 2012)
Values belong to the compound of their own block, whether it stands above or below them.

Experiments:
[1] = system: adult male Caenorhabditis elegans; experiment: Caenorhabditis mating assay (male attraction, time spent in scoring region); assay type: in vivo; settings: for activity in the attraction assay: 0 to 10000 fmol range; for male attraction activity, each ascaroside tested individually at physiological concentrations: 0 to 10 fmol for ascr#3, 0 to 100 fmol for ascr#2; for male attraction when assayed individually: 10 fmol ascr#3, 100 fmol ascr#2; for shape of dose-response curve: 0.1 fmol to 10,000 fmol (FIG. 4); for male attraction activity at higher concentrations: above the physiological range
Description: Wild-type C. elegans var. N2 Bristol and males from the CB1490 him-5(e1490) mutant were utilized in bioassays. The him-5(e1490) mutant segregates XO male progeny by X chromosome nondisjunction during meiosis. All strains were maintained at 20° C. unless detailed otherwise.
Standard nematode growth medium plates (5 cm diameter) were used for assaying biological activity of the nematode conditioned water. The assay plates comprised of a thin lawn of an overnight grown E. coli OP50 culture with an approximate 0.25 cm gap between the bacterial lawn and the edge of the plate to prevent the nematodes from escaping. Plates were stored at room temperature (20° C.) for two days before being used in trials. Two spots (5 mm in diameter) were spotted 1.6 cm apart from each other on a template and stuck to the bottom of the assay plate. 0.8 μl of the control and the nematode metabolite were placed in the two circles and allowed to dry for approximately 30 seconds. To remove any bias, control and conditioned water spots were interchanged after every trial. Males and hermaphrodites were harvested daily at the fourth larval stage (L4) and stored at 20° C. overnight with 50-60 nematodes of the same sex per plate to be used as young adults the following day. Five nematodes were placed at approximately 1.0 cm away on each side (10 nematodes total) from the spots and allowed to acclimatize for 5 minutes. Trials were videotaped at 30 frames per second for 15 minutes using the Fire-i Unibrain software. For each sample, a minimum of 4-5 trials were conducted each day and each stage was tested on at least three different days.
Each time a nematode entered and left the scoring region it was scored as a nematode event. The time the nematode entered the scoring region and left the scoring region was recorded. Once inside the scoring region, the average time spent by each nematode was noted and the average time spent by the different nematode in the scoring region during the 15 minute interval (control and the conditioned water) were calculated.

Male C. elegans = experiment: Reversal frequency of males on ascaroside agar plates (automated nematode tracker); assay type: in vivo, Caenorhabditis elegans
Description: Given the nature of the attraction assay, the exact concentration of the compounds tested in the scoring region is not well defined. […] A system used to track the sinusoidal movement of nematodes is disclosed in Cronin et al., 2005. BMC Genet. 6:5 and incorporated herein by reference.
For the tracker assays, standard nematode growth medium was prepared and added the different ascarosides to the required concentrations into the agar. Plates containing the ascarosides were then allowed to cool and stored at 20° C. overnight. Control plates were treated the same way except that instead of the ascaroside, an equivalent quantity of 100% ethanol was added to the agar. Assay plates were seeded with a thin lawn of an overnight grown E. coli OP50 culture and allowed to dry overnight. 10-15 L4 males were picked 14-16 hours before the experiment on E. coli OP50 seeded plates. For each assay, individual males were picked and placed on assay plates. After 5 minutes, males were assayed for 15 min using the automated tracker to get the different locomotion parameters. For each concentration of ascaroside, an equal number of males were tested on control plates. After the recordings, nematodes were processed using automated tracker software and the results were analyzed using in-house matlab scripts.

[2] = Stability of ascr#2 and ascr#3 in agar plates (LC-MS); assay type: physicochemical; settings: agar plates with 200 nM stored at room temperature for three months; extract in 1 ml methanol
Description: Agar plates (total volume: 20 ml) prepared from Nobel agar and S-media containing ascr#2 and ascr#3 at a concentration of 200 nM were stored at room temperature for three months and subsequently lyophilized. The residue was powdered using a mortar and extracted with ethanol. The extract was evaporated to dryness, redissolved in 1 ml of methanol, and analyzed via LC-MS, using an Agilent 1100 HPLC system equipped with a 10×250 mm Supelco 5μ ODS preparative column eluted at a flow rate of 3.4 ml/min, and a Micromass Quattro II triple-quadrupole mass spectrometer operated in positive-electrospray ionization mode. A solvent gradient was used starting with a solvent composition of 5% methanol and 95% water, which was maintained for three minutes and then progressed linearly to 100% methanol by 40 minutes, resulting in retention times of 21.3 min (ascr#3) and 25.6 min (ascr#2).

SMILES: C[C@H](CCCCC(=O)O)O[C@@H]1O[C@@H](C)[C@H](O)C[C@H]1O [ASCR #1, 6R-(Tetrahydro-3′R,5′R-dihydroxy-6′S-methyl-2H-pyran-2′R-yloxy)-heptanoic acid]
activity in the attraction assay ([1]; single ascaroside): not active

SMILES: CC(=O)CC[C@@H](C)O[C@@H]1O[C@@H](C)[C@H](O)C[C@H]1O [ASCR #2, 5R-(Tetrahydro-3′R,5′R-dihydroxy-6′S-methyl-2H-pyran-2′R-yloxy)-2-hexanone]
increase of reversal frequency (Male C. elegans; ascaroside in agar, FIG. 6B): only weak increases
concentration in the agar extract [2]: 3.5 µM
male attraction activity, each ascaroside tested individually at physiological concentrations ([1]; FIG. 4): not active
male attraction when assayed individually [1]: did not elicit significant male attraction
shape of dose-response curve ([1]; single ascaroside): strongly biphasic activity profile
male attraction activity at higher concentrations ([1]; single ascaroside): active
time spent in spotted region relative to control region (maximum) ([1]; single ascaroside, FIG. 4): ~2.8 fold

concentration in the agar extract [2]: 3.2 µM
SMILES: C[C@H](CCCC/C=C/C(=O)O)O[C@@H]1O[C@@H](C)[C@H](O)C[C@H]1O [ASCR #3, 8R-(Tetrahydro-3′R,5′R-dihydroxy-6′S-methyl-2H-pyran-2′R-yloxy)-2E-nonenoic acid]
lowest concentration that increases reversal frequency (Male C. elegans; ascaroside in agar, FIG. 6A): 1 pM
male attractant concentration lower than required for dauer induction (Male C. elegans; comparison with dauer induction): more than 10.000 fold
male attraction activity, each ascaroside tested individually at physiological concentrations ([1]; FIG. 4): not active
male attraction when assayed individually [1]: did not elicit significant male attraction
shape of dose-response curve ([1]; single ascaroside): strongly biphasic activity profile
male attraction activity at higher concentrations ([1]; single ascaroside): active
rank of male attraction response among single ascarosides ([1]; single ascaroside, FIG. 4): strongest response
time spent in spotted region relative to control region (maximum) ([1]; single ascaroside, FIG. 4): approximately 6.6 fold

SMILES: CC(=O)CC[C@@H](C)O[C@@H]1O[C@@H](C)[C@H](O)C[C@H]1O[C@@H]1O[C@H](CO)[C@@H](O)[C@H](O)[C@H]1O [ASCR #4, 5R-(3′-O-[β-D-glucosyl]-tetrahydro-3′R,5′R-dihydroxy-6′S-methyl-2H-pyran-2′R-yloxy)-2-hexanone]
activity in the attraction assay ([1]; single ascaroside): not active
